This is an account of results in patent publication US20250122191A1, “COMPOUNDS AS BCL-2 INHIBITORS” (Fochon Biosciences, Ltd, priority 2021, published 2025).

What all share (assay type): cell-based
The test system of one experiment is RS4;11-BCL-2 D103E cells. Briefly: Cell proliferation assay (MTS), RS4;11-BCL-2 D103E engineered cells. The following applies: Homo sapiens, 72 h, read-out: RS4, 11 BCL2-D103E IC50. The procedure, abridged:
(§1)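 Proliferation IC50 in RS4;11 lines engineered with BCL-2 mutations, measured by MTS at 490 nm after 72 h (D103E, D103Y) or 120 h (G101V, F104L) compound treatment at 37 °C.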

The test system of the next experiment is RS4;11-BCL-2 F104L cells. Briefly: Cell proliferation assay (MTS), RS4;11-BCL-2 F104L engineered cells. As to conditions: Homo sapiens, 120 h, read-out: RS4, 11 BCL2-F104L IC50. Put shortly:
as §1

A further experiment concerns RS4;11-BCL-2 G101V cells. The experiment in a line: Cell proliferation assay (MTS), RS4;11-BCL-2 G101V engineered cells. The following applies: Homo sapiens, 120 h, read-out: RS4, 11 BCL2-G101V IC50. The procedure, abridged:
as §1

The test system of another experiment is Toledo cells. Briefly: Cell proliferation assay (MTS), Toledo cells. The following applies: Homo sapiens, 72 h. Put shortly:
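Toledo cells (RPMI-1640, 10% FBS) seeded at 30000 cells/well, rested 4 h, then exposed 72 h at 37 °C, 5% CO2 to compound at nine final concentrations, 1.5–10000 nM. Viability by MTS (2 h), absorbance at 490 nm. IC50 from the concentration-response.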

As for `COc1cc(CN2CCN(C3CC4(CCN(c5ccc(C(=O)NS(=O)(=O)c6cnc(NC[C@H]7CC[C@](C)(O)CC7)c([N+](=O)[O-])c6)c(Oc6cc7c(F)c[nH]c7nc6OC)c5)CC4)C3)[C@H](c3ccccc3C(C)C)C2)cc(OC)n1` [Example 62, 4-(2-((R)-4-((2,6-dimethoxypyridin-4-yl)methyl)-2-(2-isopropylphenyl)piperazin-1-yl)-7-azaspiro[3.5]nonan-7-yl)-2-((3-fluoro-6-methoxy-1H-pyrrolo[2,3-b]pyridin-5-yl)oxy)-N-((6-((((1r,4r)-4-hydroxy-4-methylcyclohexyl)methyl)amino)-5-nitropyridin-3-yl)sulfonyl)benzamide], the IC50 with RS4;11-BCL-2 D103E cells, in the experiment with RS4;11-BCL-2 F104L cells and with RS4;11-BCL-2 G101V cells was 1 nM each time.

`COc1nc2[nH]cc(F)c2cc1Oc1cc(N2CCC3(CC2)CC(N2CCN(Cc4ccnc(OCCO)c4)C[C@H]2c2ccccc2C(C)C)C3)ccc1C(=O)NS(=O)(=O)c1cnc(NC[C@H]2CC[C@](C)(O)CC2)c([N+](=O)[O-])c1` [Example 64, 2-((3-fluoro-6-methoxy-1H-pyrrolo[2,3-b]pyridin-5-yl)oxy)-N-((6-((((1r,4r)-4-hydroxy-4-methylcyclohexyl)methyl)amino)-5-nitropyridin-3-yl)sulfonyl)-4-(2-((R)-4-((2-(2-hydroxyethoxy)pyridin-4-yl)methyl)-2-(2-isopropylphenyl)piperazin-1-yl)-7-azaspiro[3.5]nonan-7-yl)benzamide]: the figures for the 50% inhibitory concentration (IC50) in the experiment with RS4;11-BCL-2 D103E cells, in the experiment on RS4;11-BCL-2 F104L cells and with RS4;11-BCL-2 G101V cells were 1 nM, 3 nM and 1 nM, respectively.

Take `COc1ccc(CN2CCN(C3CC4(CCN(c5ccc(C(=O)NS(=O)(=O)c6cnc(NC[C@H]7CC[C@](C)(O)CC7)c([N+](=O)[O-])c6)c(Oc6cnc7[nH]cc(F)c7c6)c5)CC4)C3)[C@H](c3ccccc3C(C)C)C2)cc1` [Example 71, 2-((3-fluoro-1H-pyrrolo[2,3-b]pyridin-5-yl)oxy)-N-((6-((((1r,4r)-4-hydroxy-4-methylcyclohexyl)methyl)amino)-5-nitropyridin-3-yl)sulfonyl)-4-(2-((R)-2-(2-isopropylphenyl)-4-(4-methoxybenzyl)piperazin-1-yl)-7-azaspiro[3.5]nonan-7-yl)benzamide]: the IC50 with Toledo cells, in the experiment on RS4;11-BCL-2 D103E cells, in the experiment with RS4;11-BCL-2 F104L cells and with RS4;11-BCL-2 G101V cells was 1 nM each time.

For `COc1nc2[nH]cc(F)c2cc1Oc1cc(N2CCC3(CC2)CC(N2CCN(C(C)C)C[C@H]2c2ccccc2C(C)C)C3)ccc1C(=O)NS(=O)(=O)c1cnc(NC[C@H]2CC[C@](C)(O)CC2)c([N+](=O)[O-])c1` [Example 99, 2-((3-fluoro-6-methoxy-1H-pyrrolo[2,3-b]pyridin-5-yl)oxy)-N-((6-((((1r,4r)-4-hydroxy-4-methylcyclohexyl)methyl)amino)-5-nitropyridin-3-yl)sulfonyl)-4-(2-((R)-4-isopropyl-2-(2-isopropylphenyl)piperazin-1-yl)-7-azaspiro[3.5]nonan-7-yl)benzamide], the IC50 with RS4;11-BCL-2 D103E cells, with RS4;11-BCL-2 F104L cells and in the experiment with RS4;11-BCL-2 G101V cells was 1 nM in each case.

As for `CC(C)c1ccccc1[C@@H]1CN(Cc2ccc(C#N)cc2)CCN1C1CC2(CCN(c3ccc(C(=O)NS(=O)(=O)c4cnc(NC[C@H]5CC[C@](C)(O)CC5)c([N+](=O)[O-])c4)c(Oc4cnc5[nH]cc(F)c5c4)c3)CC2)C1` [Example 237, 4-(2-((R)-4-(4-cyanobenzyl)-2-(2-isopropylphenyl)piperazin-1-yl)-7-azaspiro[3.5]nonan-7-yl)-2-((3-fluoro-1H-pyrrolo[2,3-b]pyridin-5-yl)oxy)-N-((6-((((1r,4r)-4-hydroxy-4-methylcyclohexyl)methyl)amino)-5-nitropyridin-3-yl)sulfonyl)benzamide], the half-maximal inhibitory concentration (IC50) with Toledo cells, in the experiment on RS4;11-BCL-2 D103E cells, with RS4;11-BCL-2 F104L cells and in the experiment with RS4;11-BCL-2 G101V cells was 1 nM each time.

As for `CC(C)c1ccccc1[C@@H]1CN(Cc2ccncc2)CCN1C1CC2(CCN(c3ccc(C(=O)NS(=O)(=O)c4cnc(NC[C@H]5CC[C@](C)(O)CC5)c([N+](=O)[O-])c4)c(Oc4cnc5[nH]cc(F)c5c4)c3)CC2)C1` [Example 240, 2-((3-fluoro-1H-pyrrolo[2,3-b]pyridin-5-yl)oxy)-N-((6-((((1r,4r)-4-hydroxy-4-methylcyclohexyl)methyl)amino)-5-nitropyridin-3-yl)sulfonyl)-4-(2-((R)-2-(2-isopropylphenyl)-4-(pyridin-4-ylmethyl)piperazin-1-yl)-7-azaspiro[3.5]nonan-7-yl)benzamide], the half-inhibitory concentration (IC50) (usually the concentration that inhibits the measured activity by half) in the experiment with Toledo cells came out at 1 nM; in the experiment on RS4;11-BCL-2 D103E cells it was 3 nM; with RS4;11-BCL-2 F104L cells it was 1 nM; with RS4;11-BCL-2 G101V cells, 1 nM.

As to `COc1nc2[nH]cc(F)c2cc1Oc1cc(N2CCC3(CC2)CC(N2CCN(Cc4ccc(OC)c5oc(C)nc45)C[C@H]2c2ccccc2C(C)C)C3)ccc1C(=O)NS(=O)(=O)c1cnc(NC[C@H]2CC[C@](C)(O)CC2)c([N+](=O)[O-])c1` [Example 245, 2-((3-fluoro-6-methoxy-1H-pyrrolo[2,3-b]pyridin-5-yl)oxy)-N-((6-((((1r,4r)-4-hydroxy-4-methylcyclohexyl)methyl)amino)-5-nitropyridin-3-yl)sulfonyl)-4-(2-((R)-2-(2-isopropylphenyl)-4-((7-methoxy-2-methylbenzo[d]oxazol-4-yl)methyl)piperazin-1-yl)-7-azaspiro[3.5]nonan-7-yl)benzamide], the IC50 in the experiment with Toledo cells, in the experiment on RS4;11-BCL-2 D103E cells, with RS4;11-BCL-2 F104L cells and in the experiment with RS4;11-BCL-2 G101V cells was 1 nM throughout.

On to `COc1nc(CN2CCN(C3CC4(CCN(c5ccc(C(=O)NS(=O)(=O)c6cnc(NC[C@H]7CC[C@](C)(O)CC7)c([N+](=O)[O-])c6)c(Oc6cnc7[nH]cc(F)c7c6)c5)CC4)C3)[C@H](c3ccccc3C(C)C)C2)ccc1C1CC1` [Example 291, 4-(2-((R)-4-((5-cyclopropyl-6-methoxypyridin-2-yl)methyl)-2-(2-isopropylphenyl)piperazin-1-yl)-7-azaspiro[3.5]nonan-7-yl)-2-((3-fluoro-1H-pyrrolo[2,3-b]pyridin-5-yl)oxy)-N-((6-((((1r,4r)-4-hydroxy-4-methylcyclohexyl)methyl)amino)-5-nitropyridin-3-yl)sulfonyl)benzamide], for which the IC50 with Toledo cells, in the experiment on RS4;11-BCL-2 D103E cells and with RS4;11-BCL-2 F104L cells was 1 nM each time.

Turning to `CC(C)c1ccccc1[C@@H]1CN(Cc2ccc3c(c2)CCO3)CCN1C1CC2(CCN(c3ccc(C(=O)NS(=O)(=O)c4cnc(NC[C@H]5CC[C@](C)(O)CC5)c([N+](=O)[O-])c4)c(Oc4cnc5[nH]cc(F)c5c4)c3)CC2)C1` [Example 324, 4-(2-((R)-4-((2,3-dihydrobenzofuran-5-yl)methyl)-2-(2-isopropylphenyl)piperazin-1-yl)-7-azaspiro[3.5]nonan-7-yl)-2-((3-fluoro-1H-pyrrolo[2,3-b]pyridin-5-yl)oxy)-N-((6-((((1r,4r)-4-hydroxy-4-methylcyclohexyl)methyl)amino)-5-nitropyridin-3-yl)sulfonyl)benzamide], the IC50 in the experiment with Toledo cells, in the experiment on RS4;11-BCL-2 D103E cells, with RS4;11-BCL-2 F104L cells and with RS4;11-BCL-2 G101V cells was 1 nM throughout.

Regarding `COc1nc2[nH]cc(F)c2cc1Oc1cc(N2CCC3(CC2)CC(N2CCN(Cc4ccc(S(C)(=O)=O)cc4)C[C@H]2c2ccccc2C(C)C)C3)ccc1C(=O)NS(=O)(=O)c1cnc(NC[C@H]2CC[C@](C)(O)CC2)c([N+](=O)[O-])c1` [Example 327, 2-((3-fluoro-6-methoxy-1H-pyrrolo[2,3-b]pyridin-5-yl)oxy)-N-((6-((((1r,4r)-4-hydroxy-4-methylcyclohexyl)methyl)amino)-5-nitropyridin-3-yl)sulfonyl)-4-(2-((R)-2-(2-isopropylphenyl)-4-(4-(methylsulfonyl)benzyl)piperazin-1-yl)-7-azaspiro[3.5]nonan-7-yl)benzamide], the half-maximal inhibitory concentration (IC50) with Toledo cells, with RS4;11-BCL-2 D103E cells and in the experiment on RS4;11-BCL-2 F104L cells was 1 nM throughout.

On to `COc1nc2[nH]cc(F)c2cc1Oc1cc(N2CCC3(CC2)CC(N2CCN(C[C@@H]4COCCO4)C[C@H]2c2ccccc2C(C)C)C3)ccc1C(=O)NS(=O)(=O)c1cnc(NC[C@H]2CC[C@](C)(O)CC2)c([N+](=O)[O-])c1` [Example 334, 4-(2-((R)-4-(((R)-1,4-dioxan-2-yl)methyl)-2-(2-isopropylphenyl)piperazin-1-yl)-7-azaspiro[3.5]nonan-7-yl)-2-((3-fluoro-6-methoxy-1H-pyrrolo[2,3-b]pyridin-5-yl)oxy)-N-((6-((((1r,4r)-4-hydroxy-4-methylcyclohexyl)methyl)amino)-5-nitropyridin-3-yl)sulfonyl)benzamide], for which the IC50 in the experiment with Toledo cells, in the experiment with RS4;11-BCL-2 D103E cells, in the experiment with RS4;11-BCL-2 F104L cells and in the experiment on RS4;11-BCL-2 G101V cells was 1 nM each time.
